Experimental data from patent US20220282304A1, “SAME-SAMPLE ANTIBIOTIC SUSCEPTIBILITY TEST AND RELATED COMPOSITIONS, METHODS AND SYSTEMS” (CALIFORNIA INSTITUTE OF TECHNOLOGY, priority 2021, published 2022).

Tests used:
[1] = tested on: Escherichia coli isolate A; assay: Same-sample filtration AST, replicate treated and concurrent reference conditions (Example 3), isolate A; type: cell-based; conditions: 1 μg/mL ETP, 60 minutes 37° C.
Procedure: Isolate A was susceptible to ertapenem, while isolate B was resistant. The inoculum was small enough that no detectable difference in the sample's optical density at 600 mm (OD600) was detectable before and after inoculation by an Ultrospec 10 spectrophotometer with an analytical sensitivity of 0.01 absorbance units. After an incubation at 37° C., the media became turbid with an OD600 of 0.5 absorbance units after about 2 hours of incubation.
To begin the AST protocol, 23.75 μL of the above 8 bacteria batch culture dilutions was twice added to and mixed with 1.25 μL of water containing either 20 μg/mL or 0 μg/mL of dissolved ertapenem (ETP) antibiotic. As a result, […] at 1 μg/mL were created, and 8 untreated reference conditions were created (see Table 2 below). The […] were incubated at 37° C. for 60 minutes.
After 60 minutes of incubation, the entire volume of each antibiotic exposure was transferred to an individual cellulose acetate filter unit with a 0.2 μm pore size. […]
50 μL of fresh MHB media was spun through the filters after the first centrifugation (above) to wash away residual extracellular nucleic acids present in the fluid wetting the filters. […] In this experiment, the wash fluid was collected and analyzed to learn more about the protocol, but this washing step is not necessary for determining susceptibility of the isolate. […]

[2] = tested on: Escherichia coli isolate; assay: Same-sample AST, bulk: filtration, RT-ddPCR of 23S rRNA, percent extracellular (Example 1); type: cell-based; conditions: 1.0 μg/mL ETP, 37° C. 60 minutes; lower bound of 95% Poisson CI of percent extracellular vs threshold (control mean + 2 SD); three replicates
Procedure: The inoculum was small enough that no detectable difference in the sample's optical density at 600 mm (OD600) was detectable by a spectrophotometer with a sensitivity of 0.01 absorbance units. After an incubation at 37° C., the media became turbid with an OD600 of 0.26 absorbance units after 2 hours of incubation thus providing a bacteria batch culture.
To begin the AST protocol, 10 μL of the above bacteria batch culture was added to and mixed with 15 μL of Mueller-Hinton Broth (MHB) growth media containing 1.67 μg/mL of dissolved ertapenem (ETP) antibiotic to create a test condition antibiotic exposure with a final ETP concentration of 1.0 μg/mL.
In parallel, 10 μL of the batch culture was added to and mixed with 15 μL of Mueller-Hinton Broth (MHB) growth media containing no ETP to create a control condition antibiotic exposure corresponding to the 1 μg/mL test condition. The two antibiotic exposures were incubated at 37° C. for 60 minutes.
The entire volume of each antibiotic exposure was transferred to an individual cellulose acetate filter with a 0.2 μm pore size. Fluid that passes through the filter, called the “filtrate”, was collected in a clean microcentrifuge tube. The antibiotic exposures were centrifuged at 2200 relative centrifugal force to speed the passage of the antibiotic exposure through the filter and into the collecting vessel. […]

C[C@@H](O)[C@H]1C(=O)N2C(C(=O)O)=C(S[C@@H]3CN[C@H](C(=O)Nc4cccc(C(=O)O)c4)C3)[C@H](C)[C@H]12 [ETP, ertapenem]
susceptible: susceptibility call (threshold: reference mean + 2 SD of fraction extracellular) ([1]; alternative analysis) | susceptibility call (t-test treated vs untreated percent extracellular) ([1]; ddPCR 23S rRNA) | susceptibility call [2]
